Reference: patent US11753373B2, “Protease inhibitors as antivirals” (priority 2021, dated 2023)
pEC50, pIC50: −log10 of the molar value. Like-named read-outs stand apart in the source and are kept apart here.

What was measured:
[1] = type: in vitro ADME, Human; settings: extraction ratio, compound at 1 uM, human liver microsomes 0.5 mg/mL
Method: (§1) Metabolic stability of novel protease inhibitors was determined via liver microsomal stability assay. Human, mouse, SD rat, beagle dog or monkey liver microsomes were incubated with the test compound for 5 to 60 minutes at 37° C., and then the remaining parent compound was quantified by LC-MS/MS. Percentage of the test compound remaining, half-life (t1/2), in vitro intrinsic clearance (CLint, in vitro), in vivo intrinsic clearance (CLint, in vivo), hepatic clearance (CLh) and extraction ratio (ER) were calculated.
(§2) Procedure: The assay was done as described in Baranczewski, P. et al. (2006) Pharmacological Reports 58:453-472; Pearson, P. and Wienkers, L. (2008) Handbook of Drug Metabolism, 2nd Edition. CRC Pres, P.478; and Venkatesh, P. et al. (2007) Biol. Pharm. Bull. 30:1021-2024. 0.625 mg/mL liver microsomes solution was prepared by mixing 2325 μL 100 mM of K-phosphate buffer (pH 7.4) containing 2.5 mM of MgCl2, 1.25 mM of EDTA, and 75 μL microsomes (20 mg/mL) in a vial for each species.
(§3) Positive control compound: (±) Verapamil hydrochloride (Cat No.: V4629; Lot No.: MKBV4993V; Source: Sigma)
(§4) 40 μL aliquots of the liver microsome/test compound mixture were dispensed into 96-well plate in triplicate and pre-warmed the mixture for 5 minutes at 37° C. Then, 10 μL of 5 mM NADPH solution was added to each well to initiate the reaction, and gently mixed. The samples were incubated at 37° C. with gentle shaking.
(§5) For 0-min samples, 200 μL of ACN containing internal standard was added to 40 μL of liver microsome/test compound mixture, followed by addition of 5 mM NADPH, and mixed gently.
(§6) For negative control: 40 μL of liver microsome/test compound mixture was incubated at 37° C. with gentle shaking for 60 minutes, followed by addition of 200 μL ACN containing 1% FA and internal standard and 10 μL of 5 mM NADPH, mixed gently.
(§7) All samples were centrifuged at 4° C. for 20 minutes at 4,000 rpm. Then, 100 μL of the supernatant from each sample was transferred to a new 96-well plate and 100 μL of ultrapure water containing 1% FA was added to each well, and mixed gently. Samples were analyzed by LC-MS/MS.
(§8) Data Analysis: Peak area ratio (Peak Area of test compound/Peak Area of internal standard) was used to represent the concentration of compound in each sample. The remaining percentage (% Remaining) at appointed time points was calculated versus the concentration of compound at 0 min. The Ln value of the remaining percentage was linearly fitted against the incubation time.
(§9) The half-life and clearance were calculated using the following equations:
(§10) Determined percent of the remaining test compound: % remaining=[area at tx/average areas at t0]×100 (1) % metabolized=[100−% remaining] (2)
(§11) Calculated the half-life (t1/2) using the slope (k) of the log-linear regression from the concentration of remaining parent compound versus time (min) relationship: t1/2 (min)=−ln 2/k. (3)
(§12) Clint, in vitro (mL/min/mg) Clint,in vitro=k/c,(c:Liver microsome concentration in the incubation system) (4)
(§13) Hepatic Clearance (CLh) CLh=Clint,in vivo*Hepatic Blood Flow (mL/min/kg)/(Hepatic Blood Flow (mL/min/kg)+Clint,in vivo) (6)
(§14) Extraction ratio (ER): ER=CLint,in vivo/(Qh+CLint,in vivo)*100,Qh:liver blood flow (7)

[2] = type: in vitro ADME; settings: extraction ratio, compound at 1 uM; for Liver Microsomal Stability (ER) SD rat: SD rat liver microsomes 0.5 mg/mL; for Liver Microsomal Stability (ER) Beagle dog: beagle dog liver microsomes 0.5 mg/mL; for Liver Microsomal Stability (ER) Monkey: monkey liver microsomes 0.5 mg/mL; for Liver Microsomal Stability (ER) Mouse: mouse liver microsomes 0.5 mg/mL
Method: as §1, §2, §3
as §4, with “shaking. (Final concentrations: compound=1 μM; liver microsomes protein=0.5 mg/mL; MgCl2=2 mM; EDTA=1 mM; ACN=0.1%; DMSO=0.05%).” for “shaking.”
as §5, §6, §7, §8, §9, §10, §11, §12, §13, §14

[3] = molecular target: SARS-CoV-2 M^pro (3CL protease) (Severe acute respiratory syndrome coronavirus 2 (2019-nCoV) (SARS-CoV-2), UniProt P0DTD1); type: biochemical; settings: read-out: SARS-CoV-2M^pro inhibition IC50
SARS-CoV-2 = assay: Anti-viral in vitro PRNT assay in Vero E6 cells; type: cell-based; settings: Vero E6 cells, 1000 pfu, 3 days, plaque reduction; for pEC50: read-out: anti-SARS-CoV2 (PRNT) in Vero E6 EC50
[4] = mouse oral PK, female Balb/c, 40 mg/kg single dose; for AUC0-t / Cmax / Tmax / t1/2: plasma
Method: Pharmacokinetics of test compounds was evaluated following an oral administration of a single dose (at 40 mg/kg) to female Balb/c mice.
Procedure: Test compounds were administered to Balb/c mice (n=3 per sex per time point) by a single oral gavage. The target dose level for oral administration was 40 mg/kg. Blood samples were collected at pre-dose, and at 0.083, 0.25, 0.50, 1, 2, 4, 6, 8, and 12 hours post-dose. Concentrations of test compound were determined by an LC-MS/MS. Non-compartmental Pharmacokinetic parameters of test compounds were analyzed using Phoenix WinNonlin 8.3.
Animal Dosing: All animals were fasted overnight through approximately 4 hours post-dose. Tap water was provided to mice ad Libitum. The mice were dosed orally at 10.0 ml/kg. The formulation volume of the test compound administered to each animal was calculated based on the body weight measured on the day of dosing.
Sample Collection and Analysis: Approximately 0.20 mL of blood was collected via orbital sinus vein puncture into EDTA-K2 tubes. Plasma samples were harvested by centrifugation and stored at −80° C. until analysis. The analytical method for test compound involved protein precipitation by adding acetonitrile containing 1% FA and internal standard (A-1-a synthesized in house or Tolbutamide purchased from Sigma), and final analysis by LC-MS/MS. A standard curve was prepared using mouse plasma for the test compound. The calibration curve was linear over a concentration range of 1.0 to 1000 ng/mL.
Pharmacokinetic and Statistic Analysis: The reported plasma concentrations of test compounds were used to determine pharmacokinetic parameters, using a non-compartmental model for data analysis (Phoenix WinNonlin 8.3). The common pharmacokinetic parameters were calculated, whenever possible, from the plasma concentration-versus-time data. Nominal doses and sampling times were used, except where deviations were noted. […] BQL after Tmax would not participate in calculation of PK parameters.

[5] = wild type Mpro 17 nM, substrate 40 uM

Row | Compound | Liver Microsomal Stability (ER) Human [1] | Liver Microsomal Stability (ER) SD rat [2] | Liver Microsomal Stability (ER) Beagle dog [2] | Liver Microsomal Stability (ER) Monkey [2] | Liver Microsomal Stability (ER) Mouse [2] | pIC50 [3] | pIC50 [3, 5] | pEC50 (SARS-CoV-2) | anti-SARS-CoV2 (PRNT) in Vero E6 EC50 (μM) (SARS-CoV-2) | F % (bioavailability) [4] [%] | AUC0-t [4] [µg·h/mL] | Cmax [4] [µg/mL] | Tmax [4] [min] | t1/2 [4] [min]
1 | CC(C)C[C@H](NC(=O)c1cc2c(F)cccc2[nH]1)C(=O)N[C@@H](C[C@@H]1CCNC1=O)C(=O)CCl [Compound A-3-d, (2S)—N-[(2S)-4-chloro-3-oxo-1-[(3S)-2-oxopyrrolidin-3-yl]butan-2-yl]-2-[(4-fluoro-1H-indol-2-yl)formamido]-4-methylpentanamide] | 0.84 | 0.77 | 0.78 | 0.72 | 0.58 | 6.47 | – | – | – | – | – | – | – | –
2 | Cc1cccc2[nH]c(C(=O)N[C@@H](CC(C)C)C(=O)N[C@H](C#N)C[C@@H]3CCNC3=O)cc12 [Compound A-4-b] | 0.02 | 0.20 | 0.06 | 0.43 | 0.47 | – | 6.76 | – | – | – | – | – | – | –
3 | CC(C)C[C@H](NC(=O)OCc1ccccc1)C(=O)N[C@H](C#N)C[C@@H]1CCNC1=O [Compound B-1-e] | 0.24 | 0.48 | 0.37 | 0.11 | 0.00 | – | – | 4.98 | – | – | – | – | – | –
4 | C=CC(=O)N[C@H](C[C@@H]1CCNC1=O)NC(=O)[C@H](CC(C)C)NC(=O)OCc1ccccc1 [Compound B-1-f] | −0.19 | 0.13 | 0.04 | 0.04 | 0.07 | – | – | – | inactive | – | – | – | – | –
5 | C=CC(=O)N[C@H](C[C@@H]1CCNC1=O)NC(=O)[C@H](CC1CCCCC1)NC(=O)OCc1ccccc1 [Compound B-2-e] | 0.73 | 0.19 | 0.47 | 0.70 | 0.43 | – | – | – | inactive | – | – | – | – | –
6 | C[C@@H](OC(C)(C)C)[C@H](NC(=O)OCc1ccccc1)C(=O)N[C@@H](CC1CCCCC1)C(=O)N[C@H](C=O)C[C@@H]1CCNC1=O [Compound C-2-b] | 0.66 | 0.29 | 0.48 | 0.43 | 0.48 | – | – | 6.14 | – | 5.0 | 0.6652 | 0.496 | 15 | 52.6
7 | CC(C)(C)[C@H](NC(=O)C(F)(F)F)C(=O)N1C[C@H]2[C@@H]([C@H]1C(=O)N[C@@H](C[C@@H]1CCNC1=O)C(=O)CO)C2(C)C [Compound D-1-c] | 0.04 | 0.04 | −0.06 | – | 0.18 | – | – | 6.21 | – | – | 1.359 | 0.41 | 30 | 174
8 | C=CC(=O)N[C@H](C[C@@H]1CCNC1=O)NC(=O)[C@@H]1[C@@H]2[C@H](CN1C(=O)[C@@H](NC(=O)C(F)(F)F)C(C)(C)C)C2(C)C [Compound D-1-e] | −0.05 | 0.04 | −0.04 | −0.10 | −0.04 | – | – | – | inactive | – | – | – | – | –
9 | CC1(C)[C@@H]2[C@@H](C(=O)N[C@H](C#N)C[C@@H]3CCNC3=O)N(C(=O)[C@@H](NC(=O)C3CC3)C3CC3)C[C@@H]21 [Compound D-2-c] | – | – | – | – | – | 7.16 | – | – | – | – | – | – | – | –
10 | CC(C)(C)[C@H](NC(=O)C(F)F)C(=O)N1C[C@H]2[C@@H]([C@H]1C(=O)N[C@H](C#N)C[C@@H]1CCNC1=O)C2(C)C [Compound D-3-b] | 0.01 | 0.02 | −0.01 | – | 0.26 | – | – | 5.45 | – | 20.2 | 3.768 | 1.19 | 60 | 112
11 | C[C@H](NC(=O)[C@@H]1[C@@H]2[C@H](CN1C(=O)[C@@H](NC(=O)C(F)(F)F)C(C)(C)C)C2(C)C)C(=O)CCl [Compound F-1-b] | 0.48 | 0.53 | 0.46 | 0.44 | 0.38 | – | – | – | inactive | – | – | – | – | –
12 | CC(C)[C@H](NC(=O)[C@@H]1[C@@H]2[C@H](CN1C(=O)[C@@H](NC(=O)C(F)(F)F)C(C)(C)C)C2(C)C)C(=O)CCl [Compound F-2-b] | 0.81 | 0.65 | 0.55 | 0.57 | 0.50 | – | – | 6.38 | – | – | – | – | – | –
13 | C[C@@H](C=O)NC(=O)[C@@H]1[C@@H]2[C@H](CN1C(=O)[C@@H](NC(=O)C(F)(F)F)C1CC1)C2(C)C [Compound F-3-c] | −0.35 | 0.02 | −0.04 | −0.03 | −0.05 | – | – | – | inactive | – | – | – | – | –
14 | CC(C)[C@@H](C#N)NC(=O)[C@@H]1[C@@H]2[C@H](CN1C(=O)[C@@H](NC(=O)C(F)(F)F)C1CC1)C2(C)C [Compound F-4-a] | 0.07 | 0.20 | 0.08 | 0.07 | 0.03 | – | – | – | inactive | – | – | – | – | –
15 | CC(C)C[C@H](NC(=O)c1cc2ccccc2[nH]1)C(=O)N1C[C@H]2[C@@H]([C@H]1C(=O)N[C@H](C(=O)CCl)C(C)(C)C)C2(C)C [Compound G-3-c] | – | – | – | – | – | – | < 5.00 | – | – | – | – | – | – | –
16 | CC(C)C[C@H](NC(=O)C(F)F)C(=O)N1C[C@H]2[C@@H]([C@H]1C(=O)N[C@H](C#N)C[C@@H]1CCNC1=O)C2(C)C [Compound H-1-b] | 0.09 | 0.06 | 0.05 | – | 0.35 | – | – | – | – | – | 0.304 | 0.193 | 30 | 143
